Reference: patent publication US10392348B2, “2-oxo-3,4-dihydroquinoline compounds as plant growth regulators” (Syngenta Participations AG, priority 2015, dated 2019)
Where two headings read alike, the source gives them in different places.

How the values were obtained:
[1] = tested on: soybean plants (variety S20-G7); assay: Reduced plant water use in soybean (foliar spray, repeated weighing of pots); type: in vivo; conditions: Glycine max, foliar, Table B1, sprayed at 500 μM, vs negative control
Procedure, shortened: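 Compounds in blank EC formulation diluted in water with EXTRAVON 1 g/20 L, foliar-sprayed on 12-day-old soybean in growth chambers. Water use from repeated pot weighing at a.m./p.m. periods over 0-2 DAA, summed to cumulative 0-2.5 DAA; ANCOVA with pre-application baseline covariate, relative to blank-formulation control.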

[2] = tested on: corn plants (variety NK OCTET); assay: Reduced plant water use in corn (foliar spray, repeated weighing of pots); type: in vivo; conditions: Zea mays, corn plants sprayed at 500 μM, average of 6 pots
Procedure, shortened: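 Twelve-day-old corn plants sprayed on foliage with EC formulations diluted in water with 0.4% rape seed methyl ester. Day-time water use tracked by repeated pot weighing through 2.5 DAA, summed cumulatively; analysed by covariance with water use 1 day before application as baseline.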

[3] = 0 h, 0 DAA a.m. (10:30-12:50), read-out: % WU 0 DAA AM
[4] = 24 h, 1 DAA a.m. (7:30-12:50), read-out: % WU 1DAA AM
[5] = 24 h, 1 DAA p.m. (14:00-19:50), read-out: % WU 1DAA PM
[6] = 48 h, 2 DAA a.m. (07:30-12:50), read-out: % WU 2 DAA AM
[7] = 48 h, 2 DAA p.m. (14:00-19:50), read-out: % WU 2 DAA PM
[8] = 60 h, cumulative total WU (0-2.5 DAA), read-out: % WU Total 0 to 2.5 DAA
[9] = 0 h, water use during day time vs negative control, 0 DAA a.m. (10:30-12:50), read-out: % WU 0 DAA AM
[10] = 0 h, water use during day time vs negative control, 0 DAA p.m. (14:00-19:50), read-out: % WU 0DAA PM
[11] = 24 h, water use during day time vs negative control, 1 DAA a.m. (07:30-12:50), read-out: % WU 1DAA AM
[12] = 24 h, water use during day time vs negative control, 1 DAA p.m. (14:00-19:50), read-out: % WU 1DAA PM
[13] = 48 h, water use during day time vs negative control, 2 DAA a.m. (07:30-12:50), read-out: % WU 2 DAA AM
[14] = 48 h, water use during day time vs negative control, 2 DAA p.m. (14:00-19:50), read-out: % WU 2 DAA PM
[15] = 60 h, cumulative total water use 0-2.5 DAA (sum of the time points) vs negative control, read-out: % WU Total 0 to 2.5 DAA

| SMILES | change in vivo at 500 µM [1, 3] | change in vivo at 500 µM [1, 4] | change in vivo at 500 µM [1, 5] | change in vivo at 500 µM [1, 6] | change in vivo at 500 µM [1, 7] | change in vivo at 500 µM [1, 8] | change in vivo at 500 µM [2, 9] | change in vivo at 500 µM [2, 10] | change in vivo at 500 µM [2, 11] | change in vivo at 500 µM [2, 12] | change in vivo at 500 µM [2, 13] | change in vivo at 500 µM [2, 14] | change in vivo at 500 µM [2, 15] | melting point |
| --- | --- | --- | --- | --- | --- | --- | --- | --- | --- | --- | --- | --- | --- | --- |
| CCCN1C(=O)CCc2cc(CNS(=O)(=O)c3ccccc3F)ccc21 [Compound 3.007, 2-fluoro-N-[(2-oxo-1-propyl-3,4-dihydroquinolin-6-yl)methyl]benzenesulfonamide] | -16.1% | -12.7% | -9.7% | -7.7% | -7.6% | -10.8% | -16% | -12% | -11.4% | -9.5% | -6.6% | -5.9% | -9.4% | 155 to 156 °C |
| CCCN1C(=O)CCc2cc(CNS(=O)(=O)c3ccc(F)cc3)ccc21 [Compound 3.009, 4-fluoro-N-[(2-oxo-1-propyl-3,4-dihydroquinolin-6-yl)methyl]benzenesulfonamide] | -17.5% | -9.4% | -6.4% | -5.5% | -4.2% | -8.5% | -16.9% | -13.9% | -13.2% | -11.9% | -9% | -8.2% | -11.6% | 143 to 144 °C |
| CCCN1C(=O)CCc2cc(CNS(=O)(=O)c3ccc(OC)cc3)ccc21 [Compound 3.010, 4-methoxy-N-[(2-oxo-1-propyl-3,4-dihydroquinolin-6-yl)methyl]benzenesulfonamide] | -28% | -3% | -1% | -2.1% | -1.7% | -5.7% | -14.4% | -8.3% | -6.3% | -5.4% | -2.5% | -2.2% | -5.5% | 143 to 144 °C |
| C/C=C/S(=O)(=O)NCc1ccc2c(c1)CCC(=O)N2CCC [Compound 3.060, (E)-N-[(2-oxo-1-propyl-3,4-dihydroquinolin-6-yl)methyl]prop-1-ene-1-sulfonamide] | -7.9% | -5.8% | -2.6% | -5.4% | -2.7% | -4.6% | -14.8% | -10% | -10.6% | -8.4% | -8.2% | -6.4% | -9.3% | 95 to 99 °C |
| CCCN1C(=O)CCc2cc(CNS(=O)(=O)c3ccc(C)s3)ccc21 [Compound 3.061, 5-methyl-N-[(2-oxo-1-propyl-3,4-dihydroquinolin-6-yl)methyl]thiophene-2-sulfonamide] | -47.8% | 1% | 3.4% | 1.6% | 1.2% | -13.7% | -20.8% | -19.1% | -9.5% | -7.5% | -2.8% | -3.9% | -9% | 151 to 154 °C |
| CCCN1C(=O)CCc2cc(CNS(=O)(=O)c3cn(C)cn3)ccc21 [Compound 3.063, 1-methyl-N-[(2-oxo-1-propyl-3,4-dihydroquinolin-6-yl)methyl]imidazole-4-sulfonamide] | -9.3% | -5.1% | -3.9% | -6.6% | -5% | -5.5% | -8.4% | -3.1% | -3% | -1% | -1.5% | 2% | -1.4% | 168 to 171 °C |
| CCCN1C(=O)CCc2cc(CNS(=O)(=O)c3cc(Cl)sc3Cl)ccc21 [Compound 3.064, 2,5-dichloro-N-[(2-oxo-1-propyl-3,4-dihydroquinolin-6-yl)methyl]thiophene-3-sulfonamide] | -34.7% | -23.3% | -21.3% | -17.2% | -13.5% | -22.2% | -12.6% | -14.2% | -11.6% | -9.9% | -5.6% | -4.7% | -9.3% | 131 to 134 °C |
| CCCN1C(=O)CCc2cc(CNS(=O)(=O)CCC(F)(F)F)ccc21 [Compound 3.067, 3,3,3-trifluoro-N-[(2-oxo-1-propyl-3,4-dihydroquinolin-6-yl)methyl]propane-1-sulfonamide] | -28.4% | -19.3% | -17.2% | -13.3% | -9.5% | -17.2% | -14.7% | -10.7% | -12.1% | -11.5% | -9.9% | -10.1% | -11.1% | 132 to 135 °C |
| CCCN1C(=O)CCc2cc(CNS(=O)(=O)c3ccsc3)ccc21 [Compound 3.068, N-[(2-oxo-1-propyl-3,4-dihydroquinolin-6-yl)methyl]thiophene-3-sulfonamide] | -46% | -39.3% | -31.6% | -22.3% | -15.3% | -31.6% | -25.5% | -24.9% | -15.8% | -13.1% | -8.9% | -9.4% | -14.8% | 150 to 154 °C |
